IC50 data for 15 compounds are collected here from US20260008760A1, “DIPEPTIDYL PEPTIDASE 1 INHIBITORS AND USES THEREOF” (Insmed Incorporated, priority 2024, published 2026).

Read-outs that look alike come from different tables or passages of the source.

One assay addresses human DPP1 enzyme (Homo sapiens, UniProt P53634). Description: Human DPP1 Enzyme IC50 Assay. Format: biochemical. Set-up: was first proteolytically processed into its mature form using recombinant human cathepsin L; purchased R&D Systems. The procedure, abridged: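 IC50 came from a four-parameter fit of activity relative to no-compound control, with fluorescence (Ex 350/Em 450 nm) read every 5 min for 90 min at 37 °C using 400 μM final H-Gly-Arg-AMC. Cathepsin L-matured human recombinant DPP1 was preincubated 10 min with compound at pH 6.0 (MES, DTT, 1% DMSO).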

A further assay concerns the target DPP1 in HL-60 cells (Homo sapiens, UniProt P53634). Description: DPP1 Cell IC50 assay. Type of assay: cell-based. Set-up: host or cells: HL-60 cells. The settings on record: 60 min pre-incubation, H-Gly-Phe-AFC substrate, average of n runs. The procedure, abridged: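 Intracellular DPP1 activity read as AFC fluorescence (Ex/Em 400/505 nm) after 30 min with H-Gly-Phe-AFC (500 μM stock), following 60 min compound pre-incubation at 37° C with HL-60 cells at 5×10^5 live cells per mL in PBS. IC50 by 4-parameter fit against DMSO-only controls.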

The mark [1] stands for this setting: activated recombinant human DPP1, 400 μM H-Gly-Arg-AMC, 10 minutes pre-incubation at 37° C., pH 6.0, average of n runs, read-out: Avg. IC50 (Human DPP1 enzyme IC50 value ranges).
[2] abbreviates: read-out: Avg. IC50 (DPP1 Cell IC50 value ranges).

Chain of human DPP1 enzyme (P53634 25-134 limits assumed): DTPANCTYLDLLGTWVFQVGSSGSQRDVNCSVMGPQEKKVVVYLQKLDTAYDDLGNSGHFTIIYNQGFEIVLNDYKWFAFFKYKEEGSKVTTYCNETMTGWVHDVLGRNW
Chain of human DPP1 enzyme (P53634 231-394 limits assumed): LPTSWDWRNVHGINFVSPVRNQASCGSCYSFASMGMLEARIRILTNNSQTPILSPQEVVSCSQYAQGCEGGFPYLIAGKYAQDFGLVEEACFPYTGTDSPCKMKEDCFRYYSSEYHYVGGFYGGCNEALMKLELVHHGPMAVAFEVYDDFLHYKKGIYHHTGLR
Chain of human DPP1 enzyme (P53634 395-463 limits assumed): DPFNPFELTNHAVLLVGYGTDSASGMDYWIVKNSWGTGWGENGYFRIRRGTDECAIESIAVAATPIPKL
Chain of DPP1 in HL-60 cells (P53634 25-463): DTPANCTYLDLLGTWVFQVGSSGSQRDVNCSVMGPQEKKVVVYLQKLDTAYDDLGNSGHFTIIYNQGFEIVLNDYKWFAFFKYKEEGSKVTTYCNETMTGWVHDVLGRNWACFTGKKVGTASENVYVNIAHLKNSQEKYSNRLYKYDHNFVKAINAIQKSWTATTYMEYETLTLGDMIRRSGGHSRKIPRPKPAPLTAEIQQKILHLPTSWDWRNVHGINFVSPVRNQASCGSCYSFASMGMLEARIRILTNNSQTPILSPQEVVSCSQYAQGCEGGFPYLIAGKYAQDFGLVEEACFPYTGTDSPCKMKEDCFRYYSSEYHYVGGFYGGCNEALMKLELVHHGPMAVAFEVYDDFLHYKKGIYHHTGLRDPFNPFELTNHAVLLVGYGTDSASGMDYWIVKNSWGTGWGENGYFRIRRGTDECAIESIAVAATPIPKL

On to `Cc1nc(C)c2cc(-c3ccc(C[C@@H](C#N)NC(=O)[C@@H]4CNCCCO4)cc3)cn2c1C` [Compound A60], for which the IC50 at human DPP1 enzyme (setting [1]) is above 15 nM; at DPP1 in HL-60 cells (setting [2]), above 2.5 nM.
In the case of `CO[C@H]1CCO[C@H](C(=O)N[C@H](C#N)Cc2ccc(-c3ccc4c(c3)CCC(=O)N4C)cc2F)CNC1` [Compound A153], the IC50 at human DPP1 enzyme (setting [1]) is below 5 nM; at DPP1 in HL-60 cells (setting [2]), below 1 nM.
Taken in the same sequence, the figures for `COC1CNC[C@@H](C(=O)N[C@H](C#N)Cc2ccc(-c3ccc4c(F)nn(C)c4c3)cc2)OC1` (stereo partly drawn) [Compound A158] were below 5 nM and below 1 nM.
As to `COC1CNC[C@@H](C(=O)N[C@H](C#N)Cc2cnc(-c3ccc4c(F)nn(C)c4c3)s2)OC1` (stereo partly drawn) [Compound A169], the IC50 at human DPP1 enzyme (setting [1]) was below 5 nM; on DPP1 in HL-60 cells (setting [2]), below 1 nM.
Taken in the same sequence, the figures for `Cc1cc2cc(-c3ccc(C[C@@H](C#N)NC(=O)[C@@H]4CNCCCO4)cc3)cn2c(C)n1` [Compound A57] were above 15 nM and above 2.5 nM.
Turning to `N#C[C@H](Cc1ccc(-c2ccc3c(c2)[C@@]2(CCCN(C4CC4)C2)COC3)cc1)NC(=O)[C@@H]1CNCCCO1` [Compound I12], the values for the IC50 at human DPP1 enzyme (setting [1]) and on DPP1 in HL-60 cells (setting [2]) were 5 to 15 nM and above 2.5 nM, respectively.
For the compound `Cn1ncc2cc3c(cc21)-c1cc(F)c(C[C@@H](C#N)NC(=O)[C@@H]2CNCCCO2)cc1OC3` [Compound C33], the IC50 is below 5 nM at human DPP1 enzyme (setting [1]) and 1 to 2.5 nM at DPP1 in HL-60 cells (setting [2]).
`N#C[C@H](Cc1ccc(-c2cnc3c(c2)NCCC3)cc1)NC(=O)[C@@H]1CNCCCO1` [Compound A41, (2S)—N-[(1S)-1-cyano-2-[4-(5,6,7,8-tetrahydro-1,5-naphthyridin-3-yl)phenyl]ethyl]-1,4-oxazepane-2-carboxamide]: the figures for the IC50 at human DPP1 enzyme (setting [1]) and on DPP1 in HL-60 cells (setting [2]) were above 15 nM and above 2.5 nM, respectively.
Turning to `N#Cc1ccc2c(c1)COc1c-2ccc(CC(C#N)NC(=O)[C@@H]2CNCCCO2)c1F` (stereo partly drawn) [Compound B4, (2S)—N-(1-cyano-2-{8-cyano-4-fluoro-6H-benzo[c]chromen-3-yl}ethyl)-1,4-oxazepane-2-carboxamide], the half-inhibitory concentration (IC50) was above 15 nM on human DPP1 enzyme and above 2.5 nM against DPP1 in HL-60 cells (Avg. IC50 (DPP1 Cell IC50 value ranges)).
Turning to `CO[C@@H]1CCNC[C@@H](C(=O)N[C@H](C#N)Cc2ncc(-c3ccc4c(n3)CCCN4)s2)OC1` [Compound A37, (2S,7R)—N—((S)-1-cyano-2-(5-(5,6,7,8-tetrahydro-1,5-naphthyridin-2-yl)thiazol-2-yl)ethyl)-7-methoxy-1,4-oxazocane-2-carboxamide], the values for the IC50 on human DPP1 enzyme (setting [1]) and on DPP1 in HL-60 cells (setting [2]) were above 15 nM and above 2.5 nM, respectively.
Taken in the same sequence, the figures for `CO[C@H]1CCO[C@H](C(=O)N[C@H](C#N)Cc2ccc(-c3ccc4c(n3)CCCN4)cc2)CNC1` [Compound A43, (2S,6S)—N—((S)-1-cyano-2-(4-(5,6,7,8-tetrahydro-1,5-naphthyridin-2-yl)phenyl)ethyl)-6-methoxy-1,4-oxazocane-2-carboxamide] were above 15 nM and above 2.5 nM.
For `CO[C@H]1CCO[C@H](C(=O)N[C@H](C#N)Cc2cc3cc(-c4cc5c(C)nc(C)cn5c4)ccc3s2)CNC1` (single isomer, unassigned) [Compound A45] the same measures were above 15 nM and above 2.5 nM.
`CN1CCC2(CC1)C(=O)Nc1ccc(-c3ccc(C[C@@H](C#N)NC(=O)[C@@H]4CNCCCO4)cc3)cc12` [Compound 13, (2S)—N-[(1S)-1-cyano-2-(4-{1′-methyl-2-oxo-1H-spiro[indole-3,4′-piperidin]-5-yl}phenyl)ethyl]-1,4-oxazepane-2-carboxamide]: the IC50 was above 15 nM on human DPP1 enzyme (setting [1]) and above 2.5 nM at DPP1 in HL-60 cells (setting [2]).
For `C[C@@H]1NC[C@@H](C(=O)N[C@H](C#N)Cc2ccc(-c3ccc4c(c3)CCC(=O)N4C)cc2F)OC[C@@H]1O` [Compound A154] the same measures were 5 to 15 nM and 1 to 2.5 nM.
Taken in the same sequence, the figures for `CO[C@H]1CCO[C@H](C(=O)N[C@H](C#N)Cc2cc3c(cc2F)-c2ccc(C#N)cc2CO3)CNC1` (single isomer, unassigned) [Compound B13] were below 5 nM and below 1 nM.

What is called IC50 is the point on the concentration scale where inhibition reaches its midpoint.
